From PubChem BioAssay AID1199 (EPA DSSTox, 2008)
The source made the active and inactive calls.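 Rule for the calls: active = a tumour-causing dose and a tumour site recorded for mice in at least one sex group; inconclusive = only government mouse studies exist and were judged inadequate; inactive = mouse studies exist but none gave tumours.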

System: mouse carcinogenicity bioassay, TD50 from CPDB
Assay: DSSTox (CPDBAS) Carcinogenic Potency Database Summary Mouse Bioassay Results
Conditions: for outcome: TD50_Mouse_Note: no positive results
From the text: The Carcinogenic Potency Database (CPDB) is a unique and widely used international resource of the results of over 6500 chronic, long-term animal cancer tests on over 1500 chemical substances. The CPDB provides easy access to the bioassay literature, with qualitative and quantitative analyses of both positive and negative experiments that have been published over the past 50 years in the general literature and by the National Cancer Institute/National Toxicology Program. The CPDB standardizes the diverse literature of cancer bioassays that vary widely in protocol, histopathological examination and nomenclature, and in the published author's choices of what information to provide in their papers. Results are reported in the CPDB for tests in rats, mice, hamsters, dogs, and nonhuman primates, and are based on the most positive result among all experiments for each sex-species. The DSSTox CPDBAS (all species) file incorporates data from the CPDB Summary Tables for the full list of over 1500 chemical substances tested in at least one species. Summary bioassay results for Mouse (TD50, tumor sites, male, female, both sexes) are provided in the CPDB Summary Tables and the DSSTox CPDBAS file for over 1000 chemical substances.
TD50 is a standardized quantitative measure of carcinogenic potency (analogous to an LD50) and is reported in the CPDB Summary Table for each species. Activity Score for actives is computed by mapping of LOG10 (1/TD50_Mouse_mmol) activity values spanning range [MIN, MAX] onto Integer 1-100 Activity Score range, where 100 is highest potency and 1 is lowest: Activity Score = 100 * INTEGER[(log10(1/Activity) - MIN)/(MAX […] MIN)]. If activity is reported but no TD50_Mouse_mmol value is computed, such as for a mixture, the Activity Score is assigned the activity value "50". […] Target sites are reported for each sex-species group with a positive result in the CPDB on the basis of a positive author's opinion for the particular site, using all results from both the general literature and NCI/NTP bioassays. If a chemical has two or more target sites listed, the results may be from different experiments, and a single site may be a target organ in more than one experiment, as well. Blank entry in TargetSites field indicates no results reported.

[1] = TargetSites_Mouse_Female: no positive results
[2] = TargetSites_Mouse_Female: liver
[3] = TD50_Mouse_Note: TD50 is harmonic mean of more than one positive test, TargetSites_Mouse_Female: lung, vascular system
[4] = TD50_Mouse_Note: TD50 is harmonic mean of more than one positive test, TargetSites_Mouse_Female: liver

Structure (SMILES): CCS(=O)(=O)c1ccc(S(N)(=O)=O)c2ccccc12
- Potency (TD50_Mouse_Note: TD50 is harmonic mean of more than one positive test, TargetSites_Mouse_Female: urinary bladder): 0.0705 mmol/kg/day

Structure (SMILES): CCCCNC(N)=O
- outcome [1]: inactive; no positive results

Structure (SMILES): CC(=O)Nc1ccc2c(c1)Cc1ccccc1-2
- Potency (TD50_Mouse_Note: TD50 is harmonic mean of more than one positive test, greater than ten-fold variation among TD50 values for positive res, TargetSites_Mouse_Female: liver, urinary bladder): 0.034 mmol/kg/day

Structure (SMILES): NS(=O)(=O)c1cc(C(=O)O)c(NCc2ccco2)cc1Cl
- Potency (TargetSites_Mouse_Female: mammary gland): 2.21 mmol/kg/day

Structure (SMILES): CCCC[C@H](C)[C@@H](OC(=O)C[C@H](CC(=O)O)C(=O)O)[C@@H](C[C@H](C)C[C@@H](O)CCCC[C@@H](O)C[C@H](O)[C@H](C)N)OC(=O)C[C@H](CC(=O)O)C(=O)O
- Potency [2]: 0.00941 mmol/kg/day

Structure (SMILES): CNC(=O)CSP(=S)(OC)OC
- outcome [1]: inactive; no positive results

Structure (SMILES): NNC(N)=O
- Potency [3]: 2 mmol/kg/day

Structure (SMILES): CC1=C(C(=O)OCCN(Cc2ccccc2)c2ccccc2)C(c2cccc([N+](=O)[O-])c2)C(P2(=O)OCC(C)(C)CO2)=C(C)N1 (centres undefined)
- outcome [1]: inactive; no positive results

Structure (SMILES): c1ccccc1
- Potency (TD50_Mouse_Note: TD50 is harmonic mean of more than one positive test, greater than ten-fold variation among TD50 values for positive res, TargetSites_Mouse_Female: ear Zymbals gland, hematopoietic system, lung, mammary gland, ovary): 0.992 mmol/kg/day

Structure (SMILES): O=C1CCCCCN1
- outcome [1]: inactive; no positive results

Structure (SMILES): C=O
- Potency [1]: 1.46 mmol/kg/day

Structure (SMILES): CCOC(=O)C(O)(c1ccc(Cl)cc1)c1ccc(Cl)cc1
- Potency (TD50_Mouse_Note: TD50 is harmonic mean of more than one positive test, greater than ten-fold variation among TD50 values for positive res, TargetSites_Mouse_Female: liver): 0.289 mmol/kg/day

Structure (SMILES): CN(C)c1ccccc1
- outcome [1]: inactive; no positive results

Structure (SMILES): CN(C)c1ccc(C(=N)c2ccc(N(C)C)cc2)cc1
- Potency [4]: 0.206 mmol/kg/day

Structure (SMILES): COc1ccc2c3c1O[C@H]1[C@@H](O)C=C[C@H]4[C@@H](C2)N(C)CC[C@@]341
- outcome [1]: inactive; no positive results

Structure (SMILES): O=C/C=C/O
- Potency [2]: 0.15 mmol/kg/day

Structure (SMILES): CCCOC(=O)C1c2cc3c(cc2CC(C)C1C(=O)OCCC)OCO3 (centres undefined)
- outcome [1]: inactive; no positive results

Structure (SMILES): CN(C)N
- Potency [3]: 0.0659 mmol/kg/day

Structure (SMILES): S=[Se]
- Potency (TargetSites_Mouse_Female: liver, lung): 0.624 mmol/kg/day

Structure (SMILES): O=c1cc[nH]c(=S)[nH]1
- Potency [4]: 0.429 mmol/kg/day

Structure (SMILES): c1ccncc1
- Potency [4]: 0.308 mmol/kg/day

Structure (SMILES): CC(N)Cc1ccccc1 (centres undefined)
- outcome [1]: inactive; no positive results

Structure (SMILES): COc1ccc(N)c(C)c1
- outcome [1]: inactive; ntp bioassay inadequate

Structure (SMILES): Cc1noc(NS(=O)(=O)c2ccc(N)cc2)c1C
- outcome [1]: inactive; no positive results

Structure (SMILES): Nc1cc([N+](=O)[O-])ccc1C(=O)O
- outcome [1]: inactive; no positive results

Structure (SMILES): NC(N)=S
- outcome [1]: inactive

Structure (SMILES): Cc1cc(C(C)(C)C)c(O)c(C(C)(C)C)c1
- Potency (TD50_Mouse_Note: TD50 is harmonic mean of more than one positive test, TargetSites_Mouse_Female: no positive results): 2.96 mmol/kg/day

Structure (SMILES): CN(C)C(=O)Nc1cccc(C(F)(F)F)c1
- outcome [1]: inactive; no positive results

Structure (SMILES): CCOc1ccccc1C(N)=O
- Potency [1]: 3.11 mmol/kg/day

Structure (SMILES): Cc1cc(Cl)ccc1N
- Potency (TD50_Mouse_Note: TD50 is harmonic mean of more than one positive test, greater than ten-fold variation among TD50 values for positive res, TargetSites_Mouse_Female: vascular system): 0.145 mmol/kg/day

Structure (SMILES): Nc1c(Br)cc(Br)c2c1C(=O)c1ccccc1C2=O
- Potency (TD50_Mouse_Note: TD50 is harmonic mean of more than one positive test, TargetSites_Mouse_Female: liver, lung, stomach): 1.25 mmol/kg/day

Structure (SMILES): Oc1ccc(Cl)cc1Cl
- outcome [1]: inactive; no positive results

Structure (SMILES): FC(F)OC(Cl)C(F)(F)F (centres undefined)
- outcome [1]: inactive; no positive results

Structure (SMILES): Oc1ccccc1-c1ccccc1
- outcome [1]: inactive; no positive results

Structure (SMILES): O=C1Nc2ccc(Cl)cc2C(c2ccccc2)=NC1O (centres undefined)
- Potency (TD50_Mouse_Note: TD50 is harmonic mean of more than one positive test, TargetSites_Mouse_Female: liver, thyroid gland): 0.125 mmol/kg/day

Structure (SMILES): CN(C)C=O
- outcome [1]: inactive; no positive results

Structure (SMILES): FCC(F)(F)F
- outcome [1]: inactive; no positive results

Structure (SMILES): S=c1[nH]c2ccccc2s1
- outcome [1]: inactive; no positive results

Structure (SMILES): Cc1cc(N=Nc2ccccc2C)ccc1N
- outcome: inactive; no positive results

Structure (SMILES): O=C1CN=C(c2ccccc2)c2cc(Cl)ccc2N1CC1CC1
- outcome [1]: inactive; no positive results

Structure (SMILES): O=[N+]([O-])c1ccc2nc[nH]c2c1
- Potency [4]: 2.28 mmol/kg/day

Structure (SMILES): ClC/C=C/CCl
- Potency (TD50_Mouse_Note: positive test results only by intraperitoneal or intravenous injection, TargetSites_Mouse_Female: peritoneal cavity): 0.0122 mmol/kg/day

Structure (SMILES): O=c1[nH]c(=O)n(C2CCCO2)cc1F (centres undefined)
- outcome [1]: inactive; no positive results

Structure (SMILES): CC[C@H](OC(C)=O)C(C[C@H](C)N(C)C)(c1ccccc1)c1ccccc1
- outcome [1]: inactive; no positive results
